Counter-ions that a name gives are not always drawn.

The subject of data set [1] is A549 human line (non-small cell lung cancer). As to the kind of experiment: Cytotoxicity test: cell growth inhibition of the A549 human line (ATP-lite luminescence). Format: cell-based. As to conditions: A549 cells, 48 hrs incubation with compound, read-out: IC50 (concentration providing a 50% inhibition of cell proliferation). Here is the method: A cytotoxicity test is used. It measures the cell growth inhibition of the A549 human line (non-small cell lung cancer):
The A549 tumor cells are plated in a 96-well plate in RPMI 1640 medium free of phenol red (Seromed) to which is added 5% of fetal calf serum (100 μl/well, 1.25×10^4 cells/ml). After incubation for 24 hrs at 37° C. in an incubator at 5% CO2, the medium is replaced by that containing the compound to be tested, followed by incubation of the plates for another 48 hrs. Cell survival is assessed by measuring the luminescence after salting-out of the ATP from the medium using the cell lysis, luciferase and luciferine solutions included in the ATP-lite-M™ kit following the manufacturer's guidelines (Packard, Rungis, France). Each experimental condition was tested at least three times in sixplicate.

The next data set concerns P388 murine leukemia. As to the kind of experiment: Experimental P388 tumor model, survival of mice. The format is in vivo. As to conditions: dose of 0.16 mg/kg. From the text: Experimental P388 tumor model. The model used is P388 murine leukemia (Tumor Models in Cancer Research. Teicher, B. A. ed., Humana Press Inc., Totowa, N.J. Pp. 23-40, 2002), which is maintained by sequential intraperitoneal transplantations in DBA/2 mice (DBA/2JIco mice, Charles River), as previously disclosed (Classic in vivo cancer models: Three examples of mouse models used in experimental therapeutics. Current Protocols in Pharmacology Unit 5.24: 5.24.1-5.24.16, 2001).
The experiment is carried out according to a previously disclosed protocol (Cancer Chemother. Pharmacol. 1998, 41, 437-447). This comprises implanting 10^6 P388 leukemia cells per mouse into C2DF1 hybrid mice (CD2F1/CrlBR, Charles River, St Aubin-les-Elbeuf, France) intravenously at day zero. After the animals have been randomized in treatment and control cages, the compounds to be tested are administered in one single injection by intraperitoneal route the day after the tumor transplantation, at day 1. The animals are then monitored every day, weighed twice per week, and any clinical reaction is recorded. The survival rate is the parameter used to assess antitumor activity. […] The T/Csurvival ratio is calculated for each dosage and the largest value obtained represents the maximum increase in survival rate achieved (maximum activity), which is defined as the optimum T/Csurvival ratio.

Usually melting point stands for the temperature, or range, at which the solid turns liquid. On to `COc1cc(C2c3cc4c(cc3[C@@H](NC(=O)CCCN(C)C)[C@H]3COC(=O)[C@H]23)OCO4)cc(OC)c1O` (stereo in doubt) (as salt: hydrochloride), for which the melting point was 169 °C.

As for `COc1cc(C2c3cc4c(cc3[C@@H](NC(=O)NCCCNCCCCNCCCN)[C@H]3COC(=O)[C@H]23)OCO4)cc(OC)c1O` (stereo partly drawn) (as salt: hydrochloride) [Compound 48, 1-{3-[4-(3-Aminopropylamino)-butylamino]-propyl}-3-[9-(4-hydroxy-3,5-dimethoxyphenyl)-8-oxo-5,5a,6,8,8a,9-hexahydrofuro[3′,4′:6,7]-naphtho[2,3-d][1,3]dioxol-5-yl]-urea], the melting point amounted to 166 °C.

Take `COc1cc(C2c3cc4c(cc3[C@@H](NS(=O)(=O)CCNCCCNCCCCNCCCN)[C@H]3COC(=O)[C@H]23)OCO4)cc(OC)c1O` (stereo partly drawn) (as salt: hydrochloride): the melting point was 191 °C. Same read-out and setting: the result for `COc1cc(C2c3cc4c(cc3[C@@H](NC(=O)CCCN)[C@H]3COC(=O)[C@H]23)OCO4)cc(OC)c1O` (stereo in doubt) (as salt: hydrochloride) reads 284 °C. Turning to `COc1cc(C2c3cc4c(cc3[C@@H](NC(=O)NCCCNCCCCNCCCN)[C@H]3COC(=O)[C@H]23)OCO4)cc(OC)c1O` (stereo partly drawn) [Compound 48, 1-{3-[4-(3-Aminopropylamino)-butylamino]-propyl}-3-[9-(4-hydroxy-3,5-dimethoxyphenyl)-8-oxo-5,5a,6,8,8a,9-hexahydrofuro[3′,4′:6,7]-naphtho[2,3-d][1,3]dioxol-5-yl]-urea], the IC50 in data set [1] was determined as 12 nM.

With `COc1cc(C2c3cc4c(cc3[C@@H](NC(=O)NCCCNCCCNCCCCNCCCN)[C@H]3COC(=O)[C@H]23)OCO4)cc(OC)c1O` (stereo in doubt), the melting point came out at 213 °C. On to `COc1cc(C2c3cc4c(cc3[C@@H](NC(=O)CCCNCCCNCCCCNCCCN)[C@H]3COC(=O)[C@H]23)OCO4)cc(OC)c1O` (stereo partly drawn) [Compound 21, 4-{3-[4-(3-Aminopropylamino)-butylamino]-propylamino}-N-[9-(4-hydroxy-3,5-dimethoxyphenyl)-8-oxo-5,5a,6,8,8a,9-hexahydrofuro[3′,4′:6,7]-naphtho[2,3-d][1,3]dioxol-5-yl]-butyramide], for which the IC50 in data set [1] came out at 1.7 nM. Besides, the “optimum T/Csurvival value” with P388 murine leukemia (single intraperitoneal injection at day 1, 10^6 P388 cells intravenously at day 0, mice) worked out at 186%. Further, the “increase in survival rate of the animals” value with P388 murine leukemia (single intraperitoneal injection at day 1, P388 leukemia mice) was found to be 86%.

These data come from patent US8492567B2, “(Poly)Aminoalkylaminoalkylamide, alkyl-urea, or alkyl-sulfonamide derivatives of epipodophyllotoxin, a process for preparing them, and application thereof in therapy as anticancer agents” (Pierre Fabre Medicament, priority 2008, dated 2013).
